Converted amounts (≈) assume the structure as drawn.
Tests used:
Type in all cases: cell-based
[1] = tested on: Mannheimia haemolytica MH 6357 (M7/2, reference strain, cattle infection strain); experiment: MIC, broth-microdilution (CLSI VET01-A4), strain MH 6357; details: Mannheimia haemolytica strain MH 6357, broth-microdilution; unit assumed
Description: (§1) For example, representative compounds were tested against ***, Mannheimia haemolytica and Pasteurella multocida, using the conventional broth-dilution assay.
(§2) The Minimum inhibitory concentrations (MIC) of compounds according to the invention for a number of veterinary bacterial pathogens were determined by the broth-microdilution method according to CLSI document VET01-A4.
(§3) Microdilution trays containing a doubling dilution series of the test compound were used for the tests. The MIC results were interpreted according to the CLSI documents VET01-S3. The lowest concentration of compound at which no visible growth (i.e. no turbidity) detected by the unaided eye was recorded as the MIC.

[2] = tested on: Mannheimia haemolytica MH 6374 (ATCC 33396, reference strain); experiment: MIC, broth-microdilution (CLSI VET01-A4), strain MH 6374; details: Mannheimia haemolytica strain MH 6374, broth-microdilution; unit assumed
Description: as §1, §2, §3

[3] = tested on: Mannheimia haemolytica MH 10720 (154, BRD field isolate); experiment: MIC, broth-microdilution (CLSI VET01-A4), strain MH 10720; details: Mannheimia haemolytica strain MH 10720, broth-microdilution; unit assumed
Description: as §1, §2, §3

[4] = tested on: Mannheimia haemolytica MH 12587 (1071, BRD field isolate, macrolide-resistance: erm+, E+); experiment: MIC, broth-microdilution (CLSI VET01-A4), strain MH 12587; details: Mannheimia haemolytica strain MH 12587, broth-microdilution; unit assumed
Description: as §1, §2, §3

[5] = tested on: Mannheimia haemolytica MH 13065 (XB0446-6003.9, BRD field isolate); experiment: MIC, broth-microdilution (CLSI VET01-A4), strain MH 13065; details: Mannheimia haemolytica strain MH 13065, broth-microdilution; unit assumed
Description: as §1, §2, §3

[6] = tested on: Mannheimia haemolytica MH 13093 (XB0472-6014.1, BRD field isolate); experiment: MIC, broth-microdilution (CLSI VET01-A4), strain MH 13093; details: Mannheimia haemolytica strain MH 13093, broth-microdilution; unit assumed
Description: as §1, §2, §3

[7] = tested on: Pasteurella multocida PM 6267 (P 2225 (L386), reference strain, mouse infection strain); experiment: MIC, broth-microdilution (CLSI VET01-A4), strain PM 6267; details: Pasteurella multocida strain PM 6267, broth-microdilution; unit assumed
Description: as §1, §2, §3

[8] = tested on: Pasteurella multocida PM 10775 (080130003051, BRD field isolate); experiment: MIC, broth-microdilution (CLSI VET01-A4), strain PM 10775; details: Pasteurella multocida strain PM 10775, broth-microdilution; unit assumed
Description: as §1, §2, §3

[9] = tested on: Pasteurella multocida PM 12080 (IV102277-0093, BRD field isolate); experiment: MIC, broth-microdilution (CLSI VET01-A4), strain PM 12080; details: Pasteurella multocida strain PM 12080, broth-microdilution; unit assumed
Description: as §1, §2, §3

Row | Compound | MIC MH 6357 [1] [µg/mL] | MIC MH 6374 [2] [µg/mL] | MIC MH 10720 [3] [µg/mL] | MIC MH 12587 [4] [µg/mL] | MIC MH 13065 [5] [µg/mL] | MIC MH 13093 [6] [µg/mL] | MIC PM 6267 [7] [µg/mL] | MIC PM 10775 [8] [µg/mL] | MIC PM 12080 [9] [µg/mL]
1 | CC(C)[C@H](NC(=O)c1ccc(C#Cc2ccc(CNCc3ccccc3)cc2)cc1)C(=O)NO [Compound 104] | 0.4 (≈ 0.878 µM) | 0.4 (≈ 0.878 µM) | ≤ 0.1 | 1.6 (≈ 3.51 µM) | 0.4 (≈ 0.878 µM) | 0.8 (≈ 1.76 µM) | ≤ 0.1 | ≤ 0.1 | 0.4 (≈ 0.878 µM)
2 | Cc1ccc(CNCc2ccc(C#Cc3ccc(C(=O)N[C@@H](CO)C(=O)NO)cc3)cc2)cc1C [Compound 91] | 6.3 (≈ 13.4 µM) | 3.1 (≈ 6.57 µM) | 1.6 (≈ 3.39 µM) | 12.5 (≈ 26.5 µM) | 6.3 (≈ 13.4 µM) | 12.5 (≈ 26.5 µM) | 0.4 (≈ 0.848 µM) | ≤ 0.1 | 1.6 (≈ 3.39 µM)
3 | O=C(N[C@@H](CO)C(=O)NO)c1ccc(C#Cc2ccc(CN3CCc4ccccc4C3)cc2)cc1 [Compound 83] | 25 (≈ 53.2 µM) | 0.8 (≈ 1.7 µM) | 0.4 (≈ 0.852 µM) | 1.6 (≈ 3.41 µM) | 0.8 (≈ 1.7 µM) | 1.6 (≈ 3.41 µM) | ≤ 0.1 | ≤ 0.1 | 0.8 (≈ 1.7 µM)
4 | CC(C)[C@H](NC(=O)c1ccc(C#Cc2cccc(CNCc3ccncc3)c2)cc1)C(=O)NO [Compound 46] | 6.3 (≈ 13.8 µM) | 6.3 (≈ 13.8 µM) | 1.6 (≈ 3.5 µM) | 12.5 (≈ 27.4 µM) | 6.3 (≈ 13.8 µM) | 6.3 (≈ 13.8 µM) | 1.6 (≈ 3.5 µM) | 0.2 (≈ 0.438 µM) | 6.3 (≈ 13.8 µM)
5 | CC(C)[C@H](NC(=O)c1ccc(C#Cc2ccc(CN3CCCOCC3)cc2)cc1)C(=O)NO [Compound 202] | 0.8 (≈ 1.78 µM) | 3.1 (≈ 6.9 µM) | 0.2 (≈ 0.445 µM) | 3.1 (≈ 6.9 µM) | 1.6 (≈ 3.56 µM) | 1.6 (≈ 3.56 µM) | ≤ 0.1 | ≤ 0.1 | ≤ 0.1
6 | CC[C@H](C)[C@H](NC(=O)c1ccc(C#Cc2ccc(CN(C)Cc3ccccc3)cc2)cc1)C(=O)NO [Compound 127] | 3.1 (≈ 6.41 µM) | 6.3 (≈ 13 µM) | 1.6 (≈ 3.31 µM) | 25 (≈ 51.7 µM) | 6.3 (≈ 13 µM) | 12.5 (≈ 25.8 µM) | 1.6 (≈ 3.31 µM) | 0.4 (≈ 0.827 µM) | 1.6 (≈ 3.31 µM)
7 | CC(C)[C@H](NC(=O)c1ccc(C#Cc2ccc(CNCc3ccncc3)cc2)cc1)C(=O)NO [Compound 110] | 1.6 (≈ 3.5 µM) | 0.4 (≈ 0.876 µM) | ≤ 0.1 | 0.8 (≈ 1.75 µM) | 0.4 (≈ 0.876 µM) | 0.4 (≈ 0.876 µM) | ≤ 0.1 | ≤ 0.1 | 0.2 (≈ 0.438 µM)
8 | C=CCNCc1cccc(C#Cc2ccc(C(=O)N[C@H](C(=O)NO)C(C)C)cc2)c1 [Compound 26] | 12.5 (≈ 30.8 µM) | 6.3 (≈ 15.5 µM) | 3.1 (≈ 7.64 µM) | 25 (≈ 61.7 µM) | 12.5 (≈ 30.8 µM) | 12.5 (≈ 30.8 µM) | 3.1 (≈ 7.64 µM) | 0.8 (≈ 1.97 µM) | 6.3 (≈ 15.5 µM)
9 | CC(C)[C@H](NC(=O)c1ccc(C#Cc2ccc(CN3CCN(c4ccccc4)CC3)cc2)cc1)C(=O)NO [Compound 135] | 3.1 (≈ 6.07 µM) | 6.3 (≈ 12.3 µM) | 0.8 (≈ 1.57 µM) | 1 (≈ 1.96 µM) | 25 (≈ 49 µM) | 25 (≈ 49 µM) | 0.8 (≈ 1.57 µM) | ≤ 0.1 | 0.8 (≈ 1.57 µM)
10 | CC(C)[C@H](NC(=O)c1ccc(C#Cc2ccc(CN3CCC(c4ccccc4)CC3)cc2)cc1)C(=O)NO [Compound 100] | 3.1 (≈ 6.08 µM) | 6.3 (≈ 12.4 µM) | 0.8 (≈ 1.57 µM) | 12.5 (≈ 24.5 µM) | 3.1 (≈ 6.08 µM) | 6.3 (≈ 12.4 µM) | 0.4 (≈ 0.785 µM) | ≤ 0.1 | 0.8 (≈ 1.57 µM)
11 | O=C(N[C@@H](CO)C(=O)NO)c1ccc(C#Cc2ccc(CN3CCN(c4ccccn4)CC3)cc2)cc1 [Compound 82] | 1.6 (≈ 3.2 µM) | 0.8 (≈ 1.6 µM) | 0.4 (≈ 0.801 µM) | 3.1 (≈ 6.21 µM) | 6.3 (≈ 12.6 µM) | 3.1 (≈ 6.21 µM) | ≤ 0.1 | ≤ 0.1 | 0.8 (≈ 1.6 µM)
12 | CC(C)[C@H](NC(=O)c1ccc(C#Cc2cccc(CNCc3ccccc3)c2)cc1)C(=O)NO [Compound 40] | 6.3 (≈ 13.8 µM) | 3.1 (≈ 6.8 µM) | 6.3 (≈ 13.8 µM) | 12.5 (≈ 27.4 µM) | 6.3 (≈ 13.8 µM) | 6.3 (≈ 13.8 µM) | 3.1 (≈ 6.8 µM) | 0.8 (≈ 1.76 µM) | 6.3 (≈ 13.8 µM)
